From BindingDB's records for PubMed 36473699 (Cnrs, 2022) come the findings set out here.

Molecules are shown by their SMILES.

For orientation: IC50 means the midpoint of a concentration-inhibition curve.

This experiment in a line: Inhibition of Mycobacterium smegmatis MC2 155 recombinant type II NADH dehydrogenase ndh expressed in Escherichia coli assessed as rate of NADH oxidation in the presence of an electron acceptor menadione.
In the case of `COc1ccc(CN2CC[C@]34OC[C@H](C(C)C)N3C(=O)CC[C@@H]4C2)cc1`, the IC50 was found to be 890 nM. `CC(C)[C@H]1CO[C@]23CCN(Cc4ccc(Cl)cc4)C[C@H]2CCC(=O)N13`: the half-maximal inhibitory concentration (IC50) was found to be 42 nM. As for `CC(C)[C@H]1CO[C@]23CCN(Cc4ccc(C(F)(F)F)nc4)C[C@H]2CCC(=O)N13`, the figure is 88 nM.
